How the values were obtained:
[1] = Storage stability of ticagrelor 6 mg/ml in HPβCD 40% w/w, phosphate buffer pH 7.5, at 40° C. and 75% RH; format: physicochemical
Source text: (§1) A Gradient HPLC method was used to analyze impurities in formulations using a YMC-Pack Pro C18 column (100×4.6 mm, S-3 μm 12 nm). Good separation was obtained for all the impurities. • Amine impurity: (1S,2S,3R,5S)-3-(7-amino-5-(propylsulfanyl)-3H-[1,2,3]triazolo[4,5-d]pyrimidin-3-yl)-5-(2-hydroxyethoxy)cyclopentane-1,2-diol. This is a process related degradant impurity. • Regiomer impurity: (1S, 2S, 3R, 5S)-3-((3-((1R,2S)-2-(3,4-Difluorophenyl)cyclopropyl)-5-(propylsulfanyl)-3H-[1,2,3]triazolo[4,5-d]pyrimidin-7-yl)amino)-5-(2-hydroxyethoxy)cyclopentane-1,2-diol. This is a process related degradant impurity. • Acetal impurity: 2-[[(3aR,4S,6S,6aS)-6-[7-[1R,2S)-2-(3,4-difluorophenyl)-cyclopropyl]amino]-5-(propylsulfanyl)-3H-[1,2,3]triazolo-[4,5-d]pyrimidin-3-yl]-2,2-dimethyltetrahydro-2H-3aHcyclopenta[d][1,3]dioxol-4-yl]oxy]ethan-1-ol.
First HPβCD was dissolved in a phosphate buffer solution of pH 7.5 prepared separately in water. […] The solution was filtered through a 0.22 micrometer filter and filled in USP Type I amber colored glass vials. The vials were stoppered and stored. All precautions were taken during manufacturing, such as N2 purging and avoiding direct exposure to light.

[2] = Solubility of ticagrelor in aqueous vitamin E TPGS solutions; format: physicochemical
Experimental: Aqueous ticagrelor solutions were prepared using vitamin E TPGS as solubilizer for ticagrelor. Water soluble vitamin E TPGS was added to water to obtain different concentrations of 2.5 and 5.0 and 10.0 w/v % aqueous vitamin E TPGS solutions. To these solutions, kept at a temperate of 45° C.+/−5° C., portions of ticagrelor were gradually added.
In the experiment summarized in Table 29, 3 mg ticagrelor portions were added step-by-step to a 50 ml aqueous vitamin E TPGS solution (1st stage).
20 ml of each diluent were then used in a 2nd stage study. To 20 ml of each diluent 10 mg ticagrelor portions were added. This was reduced to 5 mg when the dissolution was taking longer.

[3] = Dilution of a concentrated ticagrelor vial; format: physicochemical
Source text: However, this was not possible with a 0.9 w/v % NaCl solution as diluent for the concentrated ticagrelor solution.

[4] = phosphate buffered solution pH 7.4, normal laboratory light and temperature; cited from earlier work
[5] = Stability of ticagrelor 6 mg/ml in HPβCD 40% w/w, buffer pH 4.5, 5.5, 6.5, stored at 40° C. and 75% RH (HPLC related substances); format: physicochemical
Experimental: HPβCD was dissolved in a buffer solution of pH 4.5, 5.5 or 6.5 prepared separately in water. […] The ticagrelor in buffer solution was filtered through a 0.22 micron filtered and filled in USP Type I glass vials. The vials were stoppered and stored. All precautions were taken during manufacturing, such as N2 purging and avoiding direct exposure to light. The vials were stored at 40° C. and 75% Relative Humidity (RH).
To determine the stability of the formulations, batches were evaluated using a related substance method on HPLC.
as §1

[6] = pH 7.5, T = 4 weeks, 40° C./75% RH
[7] = pH 7.5, T = 8 weeks, 40° C./75% RH
[8] = pH 7.5, T = 12 weeks, 40° C./75% RH
[9] = pH 7.5, T = 24 Weeks, 40° C./75% RH
[10] = pH 4.5, T = 2 weeks, 40° C./75% RH
[11] = pH 4.5, T = 4 weeks, 40° C./75% RH
[12] = pH 5.5, T = 2 weeks, 40° C./75% RH
[13] = pH 5.5, T = 4 weeks, 40° C./75% RH
[14] = pH 6.5, T = 2 weeks, 40° C./75% RH
[15] = pH 6.5, T = 4 weeks, 40° C./75% RH

**Q.** What does the source list for CCCSc1nc(N[C@@H]2C[C@H]2c2ccc(F)c(F)c2)c2nnn([C@@H]3C[C@H](OCCO)[C@@H](O)[C@H]3O)c2n1 [Ticagrelor, (1S,2S,3R,5S)-3-{7-[(1R,2S)-2-(3,4-difluorophenyl)cyclopropylamino]5-(propylthio)-3H-(1,2,3)triazolo (4,5-D)pyrimidin-3-yl}-5-(2 hydroxyethoxy)cyclopentane-1,2-diol]?
**A.** Storage stability ([1]; 40° C. and 75% Relative Humidity): good storage stability; Acetal impurity ([1]; pH 7.5, T = 0): 0.05%; Amine impurity ([1]; pH 7.5, T = 0): 0.04%; Assay Ticagrelor ([1]; pH 7.5, T = 0): 104.27%; Regiomer impurity ([1]; pH 7.5, T = 0): 0.00%; Sum Impurities >0.05 ([1]; pH 7.5, T = 0): 0.11%; Total Impurities ([1]; pH 7.5, T = 0): 0.31%; Triol impurity ([1]; pH 7.5, T = 0): 0.04%; Acetal impurity [1, 6]: 0.05%; Amine impurity [1, 6]: 0.05%; Assay Ticagrelor [1, 6]: 104.47%; Regiomer impurity [1, 6]: 0.01%; Sum Impurities >0.05 [1, 6]: 0.14%; Total Impurities [1, 6]: 0.32%; Triol impurity [1, 6]: 0.05%; Acetal impurity [1, 7]: 0.05%; Amine impurity [1, 7]: 0.05%; Assay Ticagrelor [1, 7]: 102.59%; Regiomer impurity [1, 7]: 0.04%; Sum Impurities >0.05 [1, 7]: 0.15%; Total Impurities [1, 7]: 0.29%; Triol impurity [1, 7]: 0.05%; Acetal impurity [1, 8]: 0.05%; Amine impurity [1, 8]: 0.05%; Assay Ticagrelor [1, 8]: 102.31%; Regiomer impurity [1, 8]: 0.08%; Sum Impurities >0.05 [1, 8]: 0.23%; Total Impurities [1, 8]: 0.41%; Triol impurity [1, 8]: 0.04%; Acetal impurity [1, 9]: 0.05%; Amine impurity [1, 9]: 0.07%; Assay Ticagrelor [1, 9]: 104.39%; Regiomer impurity [1, 9]: 0.16%; Sum Impurities >0.05 [1, 9]: 0.33%; Total Impurities [1, 9]: 0.35%; Triol impurity [1, 9]: 0.05%; Time for 10 mg ticagrelor to dissolve [2]: 5 to 10 min; Clear solution on dilution ([3]; 0.9 w/v % NaCl solution as diluent): not possible; Appearance after dilution ([3]; 1 vial of 8 ml, 65 mg ticagrelor, about 3 g HPβCD, diluted with 25 ml 5 w/v % dextrose): clear solution; Ticagrelor concentration on storage [4]: declined after 1 month; Regiomer impurity level ([5]; 4 weeks 40° C. and 75% RH, specification limit 0.3%): ~0.3%; Acetal impurity content ([5]; pH 4.5, T = 0): 0.05%; Amine impurity content ([5]; pH 4.5, T = 0): 0.05%; Content of unnamed impurity, relative retention time 1.52 ([5]; pH 4.5, T = 0): 0.03%; Oxidative impurity 1 content ([5]; pH 4.5, T = 0): 0.00%; Oxidative impurity 2 content ([5]; pH 4.5, T = 0): 0.00%; Regiomer impurity content ([5]; pH 4.5, T = 0): 0.00%; Sum Impurities >0.05 ([5]; pH 4.5, T = 0): 0.22%; Total Impurities ([5]; pH 4.5, T = 0): 0.36%; Triol impurity content ([5]; pH 4.5, T = 0): 0.05%; Acetal impurity content [5, 10]: 0.06%; Amine impurity content [5, 10]: 0.05%; Content of unnamed impurity, relative retention time 1.52 [5, 10]: 0.04%; Oxidative impurity 1 content [5, 10]: 0.00%; Oxidative impurity 2 content [5, 10]: 0.00%; Regiomer impurity content [5, 10]: 0.00%; Sum Impurities >0.05 [5, 10]: 0.23%; Total Impurities [5, 10]: 0.40%; Triol impurity content [5, 10]: 0.05%; Acetal impurity content [5, 11]: 0.05%; Amine impurity content [5, 11]: 0.05%; Content of unnamed impurity, relative retention time 1.52 [5, 11]: 0.03%; Oxidative impurity 1 content [5, 11]: 0.01%; Oxidative impurity 2 content [5, 11]: 0.02%; Regiomer impurity content [5, 11]: 0.42%; Sum Impurities >0.05 [5, 11]: 0.63%; Total Impurities [5, 11]: 0.80%; Triol impurity content [5, 11]: 0.05%; Acetal impurity content ([5]; pH 5.5, T = 0): 0.05%; Amine impurity content ([5]; pH 5.5, T = 0): 0.04%; Content of unnamed impurity, relative retention time 1.52 ([5]; pH 5.5, T = 0): 0.02%; Oxidative impurity 1 content ([5]; pH 5.5, T = 0): 0.00%; Oxidative impurity 2 content ([5]; pH 5.5, T = 0): 0.00%; Regiomer impurity content ([5]; pH 5.5, T = 0): 0.00%; Sum Impurities >0.05 ([5]; pH 5.5, T = 0): 0.16%; Total Impurities ([5]; pH 5.5, T = 0): 0.33%; Triol impurity content ([5]; pH 5.5, T = 0): 0.05%; Acetal impurity content [5, 12]: 0.05%; Amine impurity content [5, 12]: 0.05%; Content of unnamed impurity, relative retention time 1.52 [5, 12]: 0.03%; Oxidative impurity 1 content [5, 12]: 0.00%; Oxidative impurity 2 content [5, 12]: 0.00%; Regiomer impurity content [5, 12]: 0.00%; Sum Impurities >0.05 [5, 12]: 0.21%; Total Impurities [5, 12]: 0.36%; Triol impurity content [5, 12]: 0.05%; Acetal impurity content [5, 13]: 0.05%; Amine impurity content [5, 13]: 0.04%; Content of unnamed impurity, relative retention time 1.52 [5, 13]: 0.02%; Oxidative impurity 1 content [5, 13]: 0.01%; Oxidative impurity 2 content [5, 13]: 0.02%; Regiomer impurity content [5, 13]: 0.30%; Sum Impurities >0.05 [5, 13]: 0.45%; Total Impurities [5, 13]: 0.65%; Triol impurity content [5, 13]: 0.05%; Acetal impurity content ([5]; pH 6.5, T = 0): 0.06%; Amine impurity content ([5]; pH 6.5, T = 0): 0.05%; Content of unnamed impurity, relative retention time 1.52 ([5]; pH 6.5, T = 0): 0.03%; Oxidative impurity 1 content ([5]; pH 6.5, T = 0): 0.00%; Oxidative impurity 2 content ([5]; pH 6.5, T = 0): 0.00%; Regiomer impurity content ([5]; pH 6.5, T = 0): 0.00%; Sum Impurities >0.05 ([5]; pH 6.5, T = 0): 0.22%; Total Impurities ([5]; pH 6.5, T = 0): 0.36%; Triol impurity content ([5]; pH 6.5, T = 0): 0.06%; Acetal impurity content [5, 14]: 0.06%; Amine impurity content [5, 14]: 0.05%; Content of unnamed impurity, relative retention time 1.52 [5, 14]: 0.04%; Oxidative impurity 1 content [5, 14]: 0.00%; Oxidative impurity 2 content [5, 14]: 0.00%; Regiomer impurity content [5, 14]: 0.00%; Sum Impurities >0.05 [5, 14]: 0.23%; Total Impurities [5, 14]: 0.41%; Triol impurity content [5, 14]: 0.06%; Acetal impurity content [5, 15]: 0.06%; Amine impurity content [5, 15]: 0.05%; Content of unnamed impurity, relative retention time 1.52 [5, 15]: 0.03%; Oxidative impurity 1 content [5, 15]: 0.00%; Oxidative impurity 2 content [5, 15]: 0.04%; Regiomer impurity content [5, 15]: 0.35%; Sum Impurities >0.05 [5, 15]: 0.56%; Total Impurities [5, 15]: 0.72%; Triol impurity content [5, 15]: 0.05%
